This note sets out measurements from patent publication US20260014147A1, “STAT6 DEGRADERS” (Gilead Sciences, Inc., priority 2024, published 2026).

Assay [1] has as its system Eotaxin-3 (CCL26) release in human whole blood stimulated with IL-4. Description: Human Whole Blood Eotaxin-3 Assay (IL-4 stimulated, inhibition of eotaxin-3 release). The conditions noted are these: Homo sapiens, EC50 provided for test compounds with >80% Emax, geometric mean across assay runs and batches. Type of assay: cell-based. Here is the method: This was a human whole blood assay using recombinant human Interleukin 4 to stimulate the blood and measuring the ability of the test compounds to inhibit eotaxin-3 release. The biological activities of the test compounds have been tested in human whole blood stimulated with IL-4 measuring Eotaxin-3 release. The test compounds were added to 384 well clear flat-bottom plate in a 4-fold serial dilution in triplicates using a liquid handler. Human whole blood stabilized in lithium-heparin tubes was added in a volume of 65 uL per well, resulting in a final DMSO concentration of 0.5%. The plate is incubated for 2 h at 37° C. under 5% CO2/95% air. Subsequently, 5 μL of recombinant human IL-4 (R&D Systems, cat #204-ILB) was added to the wells to a final concentration of 400 pM. The plate was incubated for 48 h at 37° C. under 5% CO2/95% air. The plate was spun down for 10 minutes at 500×g and 20 uL supernatant was harvested and transferred to a 384 well v-bottom plate using a liquid handler and stored at −20° C. until further analysis. 10 uL supernatant was used to measure the level of Eotaxin-3 (CCL26) using Human Eotaxin-3 MSD kit from Mesocsale (Cat #K251UEK-4). The assay was performed according to the manufacture instructions.
The data from the human whole blood eotaxin-3 assay is shown below for Examples 2q11, 2110, and 2c49 (where the effect in % is plotted against the test concentration in M on a log-scale).

Assay [2] concerns the target T1, STAT6 (endogenous, HiBiT-tagged) in HeLa LgBiT clone 4.14 cells (Homo sapiens, UniProt P42226).
T1 construct: These cells express endogenous STAT6; host or cells: HeLa LgBiT clone 4.14
T1 sequence (P42226 1-847): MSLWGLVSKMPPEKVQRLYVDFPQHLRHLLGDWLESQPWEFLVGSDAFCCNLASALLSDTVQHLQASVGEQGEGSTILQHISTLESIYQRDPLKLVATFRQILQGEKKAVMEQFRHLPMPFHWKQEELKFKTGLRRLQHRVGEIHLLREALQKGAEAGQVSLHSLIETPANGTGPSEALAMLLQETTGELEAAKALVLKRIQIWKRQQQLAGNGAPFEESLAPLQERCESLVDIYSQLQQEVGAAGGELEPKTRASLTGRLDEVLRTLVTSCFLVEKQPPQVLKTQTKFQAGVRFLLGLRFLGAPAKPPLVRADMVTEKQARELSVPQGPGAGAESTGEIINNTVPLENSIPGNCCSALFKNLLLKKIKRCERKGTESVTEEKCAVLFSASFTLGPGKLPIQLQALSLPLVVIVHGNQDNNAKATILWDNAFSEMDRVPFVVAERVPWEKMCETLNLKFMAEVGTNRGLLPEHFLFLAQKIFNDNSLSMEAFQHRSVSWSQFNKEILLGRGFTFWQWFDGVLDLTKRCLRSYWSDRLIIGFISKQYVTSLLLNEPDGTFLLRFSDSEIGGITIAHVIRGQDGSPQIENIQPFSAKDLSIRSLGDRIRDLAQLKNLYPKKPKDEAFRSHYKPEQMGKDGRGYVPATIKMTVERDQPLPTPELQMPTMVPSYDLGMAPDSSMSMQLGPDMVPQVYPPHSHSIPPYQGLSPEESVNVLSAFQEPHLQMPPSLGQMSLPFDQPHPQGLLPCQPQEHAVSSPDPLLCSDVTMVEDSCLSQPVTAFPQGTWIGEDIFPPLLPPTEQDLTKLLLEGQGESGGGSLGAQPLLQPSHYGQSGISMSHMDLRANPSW
Description: STAT6 Degrader Assay (HiBiT based, HeLa LgBiT clone 4.14 cells, luminescence, DC50). Type of assay: cell-based. To be noted: geometric mean; for Emax: Emax provided for test compounds with <80% Emax (and 2c15), read-out: STAT6 degradation Emax. Put shortly: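 HeLa LgBiT clone 4.14 cells carry CRISPR-inserted HiBiT on endogenous STAT6; 5000 cells/well were exposed to compound for 4-24 h at 37 °C, 5% CO2. Nano-Glo substrate added for 0.5 h; luminescence reflects remaining STAT6, with terfenadine ([…]) wells defining 100% degradation.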

A value given as a limit tells only on which side of the number the result lay.

Broadly, the EC50 is the midpoint of the concentration-response curve. For `CNc1ccc(-c2ccnc3c2cc([C@H](C)N2CC=C(c4c(C)cc(C(=O)N5CCC(CN6CCN(c7ccc(NC8CCC(=O)NC8=O)cc7F)C[C@@H]6C)CC5)cc4F)CC2)n3C)cn1` (stereo partly drawn) [Example 2c47, 3-((3-fluoro-4-((S)-4-((1-(3-fluoro-5-methyl-4-(1-((S)-1-(1-methyl-4-(6-(methylamino)pyridin-3-yl)-1H-pyrrolo[2,3-b]pyridin-2-yl)ethyl)-1,2,3,6-tetrahydropyridin-4-yl)benzoyl)piperidin-4-yl)methyl)-3-methylpiperazin-1-yl)phenyl)amino)piperidine-2,6-dione], in assay [1], the EC50 was 197 nM. This counts as sub-micromolar.

In turn, `C[C@H]1CN(c2ccc(NC3CCC(=O)NC3=O)cc2F)CCN1CC1CCN(C(=O)c2ccc(C3CCN([C@@H](C)c4cc5c(-c6ccc(N)nc6)ccnc5n4C)CC3)cc2)CC1` (stereo partly drawn) [Example 2c54, 3-((4-((S)-4-((1-(4-(1-((S)-1-(4-(6-aminopyridin-3-yl)-1-methyl-1H-pyrrolo[2,3-b]pyridin-2-yl)ethyl)piperidin-4-yl)benzoyl)piperidin-4-yl)methyl)-3-methylpiperazin-1-yl)-3-fluorophenyl)amino)piperidine-2,6-dione] had an EC50 in assay [1] of 265 nM.

`C[C@@H](c1cc2c(-c3ccc(N)nc3)ccnc2n1C)N1CCC(c2ccc(C(=O)N3CCC(CN4CCN(c5ccc(NC6CCC(=O)NC6=O)cc5F)C[C@H]4C(F)(F)F)CC3)cc2)CC1` (single isomer, unassigned) [Example 2f10] came in with an EC50 in assay [1] of 385 nM.

Regarding `C[C@@H](c1cc2c(-c3ccc(N)nc3)ccnc2n1C)N1CCC(c2ccc(C(=O)N3CCC(CN4CCN(c5ccc(NC6CCC(=O)NC6=O)cc5F)C[C@@H]4C(F)(F)F)CC3)cc2)CC1` (single isomer, unassigned) [Example 2f11], in assay [1], the EC50 came to 406 nM. This EC50 and that of the molecule before are within 1.5-fold of each other.

`C[C@H]1CN(c2ncc(NC3CCC(=O)NC3=O)cc2F)CCN1CC1CCN(C(=O)c2ccc(C3CCN([C@@H](C)c4cc5c(-c6ccc(N)nc6)ccnc5n4C)CC3)cc2)CC1` (stereo partly drawn) [Example 2c55, 3-((6-((S)-4-((1-(4-(1-((S)-1-(4-(6-aminopyridin-3-yl)-1-methyl-1H-pyrrolo[2,3-b]pyridin-2-yl)ethyl)piperidin-4-yl)benzoyl)piperidin-4-yl)methyl)-3-methylpiperazin-1-yl)-5-fluoropyridin-3-yl)amino)piperidine-2,6-dione] came in with an EC50 in assay [1] of 247 nM.

With `CNc1ccc(-c2ccnc3c2cc([C@H](C)N2CC=C(c4c(C)cc(C(=O)N5CCn6nc(CN7CCC(c8ccc(NC9CCC(=O)NC9=O)c(OC)c8)CC7)cc6C5)cc4F)CC2)n3C)cn1` (stereo partly drawn) [Example 2c49, 3-((4-(1-((5-(3-fluoro-5-methyl-4-(1-((S)-1-(1-methyl-4-(6-(methylamino)pyridin-3-yl)-1H-pyrrolo[2,3-b]pyridin-2-yl)ethyl)-1,2,3,6-tetrahydropyridin-4-yl)benzoyl)-4,5,6,7-tetrahydropyrazolo[1,5-a]pyrazin-2-yl)methyl)piperidin-4-yl)-2-methoxyphenyl)amino)piperidine-2,6-dione], the EC50 in assay [1] came to 3 nM.

`C[C@@H](c1cc2c(-c3ccc(N)nc3)ccnc2n1C)N1CCC(c2ccc(C(=O)N3CCn4nc(CN5CCN(c6ccc(NC7CCC(=O)NC7=O)cc6F)CC5)cc4C3)cc2)CC1` (stereo partly drawn) [Example 2q15, 3-((4-(4-((5-(4-(1-((S)-1-(4-(6-aminopyridin-3-yl)-1-methyl-1H-pyrrolo[2,3-b]pyridin-2-yl)-ethyl)piperidin-4-yl)benzoyl)-4,5,6,7-tetrahydropyrazolo[1,5-a]pyrazin-2-yl)methyl)piperazin-1-yl)-3-fluoro-phenyl)amino)piperidine-2,6-dione] yielded an EC50 in assay [1] of 37.8 nM. This EC50 is about 13-fold higher than that of the molecule before.

A word on the Emax: it is the size of the effect at its maximum, as opposed to the concentration needed. Take `Cn1c(CN2CCC(c3ccc(C(=O)N4CCC(CN5CCN(c6cccc(NC7CCC(=O)NC7=O)c6)CC5)CC4)cc3)CC2)cc2c(-c3ccc4[nH]ncc4c3)ccnc21` (centres unmarked) [Example 2l1, 3-((3-(4-((1-(4-(1-((4-(1H-indazol-5-yl)-1-methyl-1H-pyrrolo[2,3-b]pyridin-2-yl)methyl)-piperidin-4-yl)benzoyl)piperidin-4-yl)methyl)piperazin-1-yl)phenyl)amino)piperidine-2,6-dione]: the maximum response (Emax) in assay [2] was in the range of 60 to 70%.

As for `Cn1c(CN2CCC(c3ccc(C(=O)N4CCn5c(CN6CCC(c7ccc(NC8CCC(=O)NC8=O)cc7F)CC6)nnc5C4)cc3)CC2)cc2c(-c3ccc4[nH]ncc4c3)ccnc21` (centres unmarked) [Example 2q2, 3-((4-(1-((7-(4-(1-((4-(1H-indazol-5-yl)-1-methyl-1H-pyrrolo[2,3-b]pyridin-2-yl)methyl)-piperidin-4-yl)benzoyl)-5,6,7,8-tetrahydro-[1,2,4]triazolo[4,3-a]pyrazin-3-yl)methyl)piperidin-4-yl)-3-fluorophenyl)amino)piperidine-2,6-dione], the Emax in assay [2] was in the range of 70 to 80%.

As for `COCc1nc2cc(-c3ccnc4c3cc([C@H](C)N3CCC(c5ccc(C(=O)N6CCC(CN7CCN(c8ccc(NC9CCC(=O)NC9=O)cc8C#N)CC7)CC6)cc5)CC3)n4C)ccc2[nH]1` (stereo partly drawn) [Example 2i2, 5-((2,6-dioxopiperidin-3-yl)amino)-2-(4-((1-(4-(1-((S)-1-(4-(2-(methoxymethyl)-1H-benzo[d]-imidazol-5-yl)-1-methyl-1H-pyrrolo[2,3-b]pyridin-2-yl)ethyl)piperidin-4-yl)benzoyl)piperidin-4-yl)methyl)-piperazin-1-yl)benzonitrile], in assay [2], the Emax was in the range of 30 to 40%.

As usually defined, the DC50 is the concentration giving 50% degradation. Regarding `CC(c1cc2c(-c3ccc(N)nc3)ccnc2n1C)N1CCC(c2ccc(C(=O)N3CCC(CN4CCN(c5ccc(N[C@H]6CCC(=O)NC6=O)cc5F)CC4)CC3)cc2)CC1` (single isomer, unassigned) [Example 2c11], in assay [2] (DC50 provided for test compounds with >80% Emax, read-out: STAT6 degradation DC50), the DC50 came out at 11.2 nM.

For `CNc1ccc(-c2ccnc3c2cc([C@@H](C)N2CC=C(c4c(C)cc(C(=O)N5CCC(CCn6cc(-c7ccc(NC8CCC(=O)NC8=O)cc7)nn6)CC5)cc4F)CC2)n3C)cn1` (stereo partly drawn) [Example 2c57, 3-((4-(1-(2-(1-(3-fluoro-5-methyl-4-(1-((R)-1-(1-methyl-4-(6-(methylamino)pyridin-3-yl)-1H-pyrrolo[2,3-b]pyridin-2-yl)ethyl)-1,2,3,6-tetrahydropyridin-4-yl)benzoyl)piperidin-4-yl)ethyl)-1H-1,2,3-triazol-4-yl)phenyl)amino)piperidine-2,6-dione], in assay [2], the Emax is < 20%.

Regarding `Cn1c(CN2CCC(c3ccc(C(=O)N4CCC(CN5CCN(c6ccc(N[C@H]7CCC(=O)NC7=O)cc6F)CC5)CC4)cc3)CC2)cc2c(-c3ccc4[nH]ncc4c3)ccnc21` (single isomer, unassigned) [Example 2c5], the Emax in assay [2] was 70 to 80%.

For `Cn1c(CN2CCC(c3ccc(C(=O)N4CCC(CN5CCN(c6ccnc(NC7CCC(=O)NC7=O)n6)CC5)CC4)cc3)CC2)cc2c(-c3ccc4[nH]ncc4c3)ccnc21` (centres unmarked) [Example 2k3, 3-((4-(4-((1-(4-(1-((4-(1H-indazol-5-yl)-1-methyl-1H-pyrrolo[2,3-b]pyridin-2-yl)methyl)-piperidin-4-yl)benzoyl)piperidin-4-yl)methyl)piperazin-1-yl)pyrimidin-2-yl)amino)piperidine-2,6-dione], the Emax in assay [2] was 30 to 40%.
